The source made the active and inactive calls.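 The calls were made as follows: active = mean IC50 for reducing PEG3 promoter reporter signal at or below a set limit, with IC50 above the limit in both counter screens; inactive = the rest, including counter screen hits.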
Key:
Assay in all cases: inhibition of PEG-3 promoter-driven reporter – cell-based, HeLa, luciferase, CREF/GAPDH counter-screen panel, dose response (AID 624167)
[1] = system: PEG-3; conditions: HeLa PEG-Prom luciferase reporter, overnight, CREF/GAPDH counter-screens
[2] = system: Rat fibroblasts (CREF); conditions: CREF/GAPDH counter-screens
[3] = target: PEG-3 (UniProt Q6IN02); conditions: HeLa PEG-Prom luciferase reporter, overnight, CREF/GAPDH counter-screens, mean of runs
[4] = run 1, dose range 1, individual replicate IC50 per panel
[5] = run 2, dose range 1, individual replicate IC50 per panel

Chain of PEG-3 (UniProt Q6IN02) (Q6IN02 whole entry, looked up): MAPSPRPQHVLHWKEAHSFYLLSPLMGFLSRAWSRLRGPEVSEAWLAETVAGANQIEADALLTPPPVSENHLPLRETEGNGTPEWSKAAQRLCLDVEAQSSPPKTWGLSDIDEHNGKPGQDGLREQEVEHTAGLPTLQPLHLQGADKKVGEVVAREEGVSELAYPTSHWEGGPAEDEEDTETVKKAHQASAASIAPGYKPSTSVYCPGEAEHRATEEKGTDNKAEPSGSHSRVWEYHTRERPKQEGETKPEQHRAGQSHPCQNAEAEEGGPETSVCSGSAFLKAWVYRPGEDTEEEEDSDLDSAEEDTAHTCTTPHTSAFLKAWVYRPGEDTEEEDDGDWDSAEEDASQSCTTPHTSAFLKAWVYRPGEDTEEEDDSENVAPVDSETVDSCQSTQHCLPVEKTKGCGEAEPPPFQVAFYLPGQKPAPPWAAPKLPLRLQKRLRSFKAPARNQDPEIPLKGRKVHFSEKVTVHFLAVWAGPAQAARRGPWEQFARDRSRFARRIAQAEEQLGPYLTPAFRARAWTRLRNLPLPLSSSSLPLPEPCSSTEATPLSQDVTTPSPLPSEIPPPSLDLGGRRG

For `Cc1cc(C(=O)COC(=O)c2ccccc2O)c(C)n1CC1CCCO1` (stereo unspecified), the IC50 [1, 4] was 1240 nM, the IC50 [1, 5] was > 100000 nM and the IC50 ([2]; mean of runs) was 3390 nM. For the same compound, the IC50 [2, 4] was 3340 nM, the IC50 [2, 5] was 3440 nM and the IC50 [3] was “inactive”.
In the case of `Cc1ccc(C(=O)Nc2ncc([N+](=O)[O-])s2)cc1`, the IC50 [1, 4] is reported as 2010 nM, the IC50 [1, 5] is reported as 3450 nM and the IC50 ([2]; mean of runs) is reported as 8850 nM. For the same compound, the IC50 [2, 4] was 5940 nM, the IC50 [2, 5] was 11800 nM and the IC50 [3] was 2730 nM.
For `Cc1ccc2nc(-c3ccc4c(c3)OCCO4)cn2c1`, the IC50 [1, 4] was 840 nM, the IC50 [1, 5] was 409 nM and the IC50 ([2]; mean of runs) was 731 nM. For the same compound, the IC50 [2, 4] was 691 nM, the IC50 [2, 5] was 771 nM and the IC50 [3] was 624 nM.
For `C(=NNc1ccc2ccccc2n1)c1ccccn1`, the IC50 [1, 4] was 1210 nM, the IC50 [1, 5] was 2110 nM and the IC50 ([2]; mean of runs) was 1440 nM. The IC50 [2, 4] was 1330 nM, the IC50 [2, 5] was 1550 nM and the IC50 [3] was 1660 nM.
With `O=C(COc1ccc(Cl)cc1Cl)Nc1ccccn1` the IC50 [1, 4] was 1270 nM, the IC50 [1, 5] was 594 nM and the IC50 ([2]; mean of runs) was 904 nM. The IC50 [2, 4] was 795 nM, the IC50 [2, 5] was 1010 nM and the IC50 [3] was 930 nM.
`O=C(c1ccc(Cl)cc1)N1CCCCC(Sc2nnc(-c3ccc4c(c3)OCO4)o2)C1=O` (stereo unspecified) gave an IC50 [1, 4] of 669 nM, an IC50 [1, 5] of 3910 nM and an IC50 ([2]; mean of runs) of 2250 nM. It also gave an IC50 [2, 4] of 3870 nM, an IC50 [2, 5] of 643 nM and an IC50 [3] of 2290 nM.
In the case of `O=c1oc2ccccc2cc1-c1cn2ccccc2n1`, the IC50 [1, 4] is reported as 2310 nM, the IC50 [1, 5] is reported as 3170 nM and the IC50 ([2]; mean of runs) is reported as 4470 nM. For the same compound, the IC50 [2, 4] was 2840 nM, the IC50 [2, 5] was 6100 nM and the IC50 [3] was 2740 nM.
`CN(C)c1ccc(Nc2nc(N)c3ccccc3n2)cc1` gave an IC50 [1, 4] of 2510 nM, an IC50 [1, 5] of 4820 nM and an IC50 ([2]; mean of runs) of 995 nM. It also gave an IC50 [2, 4] of 869 nM, an IC50 [2, 5] of 1120 nM and an IC50 [3] of 3660 nM.
`O=C(Nc1cc(S(=O)(=O)N2CCOCC2)ccc1Cl)c1cc([N+](=O)[O-])ccc1Cl` gave an IC50 [1, 4] of 14800 nM, an IC50 [1, 5] of 2160 nM and an IC50 ([2]; mean of runs) of 19000 nM. The IC50 [2, 4] was 31800 nM, the IC50 [2, 5] was 6140 nM and the IC50 [3] was 8460 nM.
With `Brc1ccc(N/N=C(/N=Nc2nn[nH]n2)c2ccccc2)cc1` the IC50 [1, 4] was 760 nM, the IC50 [1, 5] was 1240 nM and the IC50 ([2]; mean of runs) was 10200 nM. It also gave an IC50 [2, 4] of 10000 nM, an IC50 [2, 5] of 10400 nM and an IC50 [3] of 1000 nM.
For `CCOC(=O)Cc1csc(NC(=S)NC(=O)c2ccc(Cl)cc2)n1`, the IC50 [1, 4] was 7550 nM, the IC50 [1, 5] was 3680 nM and the IC50 ([2]; mean of runs) was 4970 nM. For the same compound, the IC50 [2, 4] was 4160 nM, the IC50 [2, 5] was 5770 nM and the IC50 [3] was 5620 nM.

Source: PubChem BioAssay AID624167 (Sanford-Burnham Center for Chemical Genomics, 2012)
